Data reported in patent US8563542B2 (Cyclacel Limited, priority 2007, dated 2013).
Like-named read-outs stand apart in the source and are kept apart here.

Target: PLK1 (Homo sapiens, UniProt P53350)
Test: PLK1 protein kinase assay (CDC25C phosphorylation, [γ-32P]-ATP)
Type: biochemical
Conditions: for IC50: read-out: PLK1 IC50
[1] = Table 2, PLK1 IC50, class symbols

Chain of PLK1 (P53350 whole entry): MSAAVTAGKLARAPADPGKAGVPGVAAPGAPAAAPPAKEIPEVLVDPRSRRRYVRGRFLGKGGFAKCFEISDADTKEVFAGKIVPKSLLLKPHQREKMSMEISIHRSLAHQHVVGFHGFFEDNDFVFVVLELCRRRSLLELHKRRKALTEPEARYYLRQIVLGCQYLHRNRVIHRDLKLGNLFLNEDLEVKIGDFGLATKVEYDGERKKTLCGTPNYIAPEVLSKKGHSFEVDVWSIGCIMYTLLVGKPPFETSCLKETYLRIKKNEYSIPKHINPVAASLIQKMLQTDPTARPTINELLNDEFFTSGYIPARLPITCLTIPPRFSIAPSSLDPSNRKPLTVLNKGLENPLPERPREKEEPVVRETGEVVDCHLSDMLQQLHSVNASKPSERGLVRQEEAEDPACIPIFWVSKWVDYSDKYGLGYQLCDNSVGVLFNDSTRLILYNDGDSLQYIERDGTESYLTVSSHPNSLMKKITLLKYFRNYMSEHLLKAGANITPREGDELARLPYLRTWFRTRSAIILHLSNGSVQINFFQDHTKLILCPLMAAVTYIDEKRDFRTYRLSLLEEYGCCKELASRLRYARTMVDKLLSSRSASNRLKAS

| IC50 (Table 3) [µM] | Ki (Table 6) [µM] | SMILES | IC50 [1] [µM] |
| --- | --- | --- | --- |
| < 0.1 |  | COc1cc(C(=O)NN2CCN(C)CC2)ccc1Nc1ncc2c(n1)N(C1CCCC1)CC(C)(C)C(=O)N2C [Compound 195, 4-(9-Cyclopentyl-5,7,7-trimethyl-6-oxo-6,7,8,9-tetrahydro-5H-pyrimido[4,5-b][1,4]diazepin-2-ylamino)-3-methoxy-N-(4-methyl-piperazin-1-yl)-benzamide] | < 0.1 |
| < 0.1 |  | COc1cc(C(=O)NN2CCN(C)CC2)ccc1Nc1ncc2c(n1)N(C1CCCC1)CC1(CCC1)C(=O)N2C [Compound 221, 4-(9′-cyclopentyl-5′-methyl-6′-oxo-5′,6′,8′,9′-tetrahydrospiro[cyclobutane-1,7′-pyrimido[4,5-b][1,4]diazepine]-2′-ylamino)-3-methoxy-N-(4-methylpiperazin-1-yl)benzamide] | < 0.1 |
| < 0.1 | < 0.01 | COc1cc(C(=O)NN2CCN(C)CC2)ccc1Nc1ncc2c(n1)N(C1CCCC1)CC1(CC1)C(=O)N2C [Compound 254, 4-(9′-cyclopentyl-5′-methyl-6′-oxo-5′,6′,8′,9′-tetrahydrospiro[cyclopropane-1,7′-pyrimido[4,5-b][1,4]diazepine]-2′-ylamino)-3-methoxy-N-(4-methylpiperazin-1-yl)benzamide] | < 0.1 |
| < 0.1 |  | COc1cc(C(=O)NC2CCN(C3CCOCC3)CC2)ccc1Nc1ncc2c(n1)N(C1CCCC1)CCC(=O)N2C [Compound 345, 4-(9-Cyclopentyl-5-methyl-6-oxo-6,7,8,9-tetrahydro-5H-pyrimido[4,5-b][1,4]diazepin-2-ylamino)-3-methoxy-N-[1-(tetrahydro-pyran-4-yl)-piperidin-4-yl]-benzamide] | < 0.1 |
| < 0.1 |  | COc1cc(C(=O)N[C@H]2CC[C@H](N3CCN(CC4CC4)CC3)CC2)ccc1Nc1ncc2c(n1)N(C1CCCC1)CC1(CC1)C(=O)N2C [Compound 371, 4-(9′-cyclopentyl-5′-methyl-6′-oxo-5′,6′,8′,9′-tetrahydrospiro[cyclopropane-1,7′-pyrimido[4,5-b][1,4]diazepine]-2′-ylamino)-N-((trans)-4-(4-(cyclopropylmethyl)piperazin-1-yl)cyclohexyl)-3-methoxybenzamide] |  |
| < 0.1 |  | CN1CCN(NC(=O)c2ccc(Nc3ncc4c(n3)N(C3CCCC3)CC3(CCC3)C(=O)N4C)c(F)c2)CC1 [Compound 373, 4-(9′-cyclopentyl-5′-methyl-6′-oxo-5′,6′,8′,9′-tetrahydrospiro[cyclobutane-1,7′-pyrimido[4,5-b][1,4]diazepine]-2′-ylamino)-3-fluoro-N-(4-methylpiperazin-1-yl)benzamide] |  |
| < 0.1 |  | CN1CCN(NC(=O)c2ccc(Nc3ncc4c(n3)N(C3CCCC3)CC3(CC3)C(=O)N4C)c(F)c2)CC1 [Compound 374, 4-(9′-Cyclopentyl-5′-methyl-6′-oxo-5′,6′,8′,9′-tetrahydrospiro[cyclopropane-1,7′-pyrimido[4,5-b][1,4]diazepine]-2′-ylamino)-3-fluoro-N-(4-methylpiperazin-1-yl)benzamide] |  |
| < 0.1 |  | COc1cc(C(=O)NN2CCN(CCO)CC2)ccc1Nc1ncc2c(n1)N(C1CCCC1)CC1(CC1)C(=O)N2C [Compound 375, 4-(9′-Cyclopentyl-5′-methyl-6′-oxo-5′,6′,8′,9′-tetrahydrospiro[cyclopropane-1,7′-pyrimido[4,5-b][1,4]diazepine]-2′-ylamino)-N-(4-(2-hydroxyethyl)piperazin-1-yl)-3-methoxybenzamide] |  |
| < 0.1 |  | COc1cc(C(=O)NN2CCOCC2)ccc1Nc1ncc2c(n1)N(C1CCCC1)CC1(CC1)C(=O)N2C [Compound 376, 4-(9′-Cyclopentyl-5′-methyl-6′-oxo-5′,6′,8′,9′-tetrahydrospiro[cyclopropane-1,7′-pyrimido[4,5-b][1,4]diazepine]-2′-ylamino)-3-methoxy-N-morpholinobenzamide] |  |
| < 0.1 |  | COc1cc(C(=O)N[C@H]2CC[C@H](N3CCN(CC4CC4)CC3)CC2)ccc1Nc1ncc2c(n1)N(C1CCCC1)CC1(CCC1)C(=O)N2C [Compound 377, 4-(9′-cyclopentyl-5′-methyl-6′-oxo-5′,6′,8′,9′-tetrahydrospiro[cyclobutane-1,7′-pyrimido[4,5-b][1,4]diazepine]-2′-ylamino)-N-((trans)-4-(4-(cyclopropylmethyl)piperazin-1-yl)cyclohexyl)-3-methoxybenzamide] |  |
| < 0.1 |  | COc1cc(C(=O)N[C@H]2CC[C@H](N3CCN(CC4CC4)CC3)CC2)ccc1Nc1ncc2c(n1)N(C1CCCC1)CCC(=O)N2C [Compound 378, 4-(9-cyclopentyl-5-methyl-6-oxo-6,7,8,9-tetrahydro-5H-pyrimido[4,5-b][1,4]diazepin-2-ylamino)-N-((trans)-4-(4-(cyclopropylmethyl)piperazin-1-yl)cyclohexyl)-3-methoxybenzamide] |  |
| < 0.1 |  | CCN1CCN([C@H]2CC[C@H](NC(=O)c3ccc(Nc4ncc5c(n4)N(C4CCCC4)CC4(CC4)C(=O)N5C)c(OC)c3)CC2)CC1 [Compound 379, 4-(9′-cyclopentyl-5′-methyl-6′-oxo-5′,6′,8′,9′-tetrahydrospiro[cyclopropane-1,7′-pyrimido[4,5-b][1,4]diazepine]-2′-ylamino)-N-((trans)-4-(4-ethylpiperazin-1-yl)cyclohexyl)-3-methoxybenzamide] |  |
| < 0.1 |  | CCN1CCN([C@H]2CC[C@@H](NC(=O)c3ccc(Nc4ncc5c(n4)N(C4CCCC4)CC4(CC4)C(=O)N5C)c(OC)c3)CC2)CC1 [Compound 380, 4-(9′-cyclopentyl-5′-methyl-6′-oxo-5′,6′,8′,9′-tetrahydrospiro[cyclopropane-1,7′-pyrimido[4,5-b][1,4]diazepine]-2′-ylamino)-N-((cis)-4-(4-ethylpiperazin-1-yl)cyclohexyl)-3-methoxybenzamide] |  |
| < 0.1 |  | COc1cc(C(=O)NC2CCC(N3CCCN(CC4CC4)CC3)CC2)ccc1Nc1ncc2c(n1)N(C1CCCC1)CC1(CC1)C(=O)N2C (centres unmarked) [Compound 381, 4-(9′-cyclopentyl-5′-methyl-6′-oxo-5′,6′,8′,9′-tetrahydrospiro[cyclopropane-1,7′-pyrimido[4,5-b][1,4]diazepine]-2′-ylamino)-N-(4-(4-(cyclopropylmethyl)-1,4-diazepan-1-yl)cyclohexyl)-3-methoxybenzamide] |  |
| < 0.1 |  | CCN1CCCN(C2CCC(NC(=O)c3ccc(Nc4ncc5c(n4)N(C4CCCC4)CC4(CC4)C(=O)N5C)c(OC)c3)CC2)CC1 (centres unmarked) [Compound 382, 4-(9′-cyclopentyl-5′-methyl-6′-oxo-5′,6′,8′,9′-tetrahydrospiro[cyclopropane-1,7′-pyrimido[4,5-b][1,4]diazepine]-2′-ylamino)-N-(4-(4-ethyl-1,4-diazepan-1-yl)cyclohexyl)-3-methoxybenzamide] |  |
| 0.1 to 1 |  | COc1cc(C(=O)NC2CCC(N3CCCN(Cc4ccccc4)CC3)CC2)ccc1Nc1ncc2c(n1)N(C1CCCC1)CC1(CC1)C(=O)N2C (centres unmarked) [Compound 383, N-(4-(4-benzyl-1,4-diazepan-1-yl)cyclohexyl)-4-(9′-cyclopentyl-5′-methyl-6′-oxo-5′,6′,8′,9′-tetrahydrospiro[cyclopropane-1,7′-pyrimido[4,5-b][1,4]diazepine]-2′-ylamino)-3-methoxybenzamide] |  |
| < 0.1 |  | COc1cc(C(=O)N[C@H]2CC[C@H](N3CCN(C)CC3)CC2)ccc1Nc1ncc2c(n1)N(C1CCCC1)CC1(CC1)C(=O)N2C [Compound 384, 4-(9′-cyclopentyl-5′-methyl-6′-oxo-5′,6′,8′,9′-tetrahydrospiro[cyclopropane-1,7′-pyrimido[4,5-b][1,4]diazepine]-2′-ylamino)-N-((trans)-4-(4-methylpiperazin-1-yl)cyclohexyl)-3-methoxybenzamide] |  |
| < 0.1 |  | COc1cc(C(=O)N[C@H]2CC[C@@H](N3CCN(C)CC3)CC2)ccc1Nc1ncc2c(n1)N(C1CCCC1)CC1(CC1)C(=O)N2C [Compound 385, 4-(9′-cyclopentyl-5′-methyl-6′-oxo-5′,6′,8′,9′-tetrahydrospiro[cyclopropane-1,7′-pyrimido[4,5-b][1,4]diazepine]-2′-ylamino)-N-((cis)-4-(4-methylpiperazin-1-yl)cyclohexyl)-3-methoxybenzamide] |  |
| < 0.1 |  | COc1cc(C(=O)N[C@H]2CC[C@H](N3CCN(Cc4ccccc4)CC3)CC2)ccc1Nc1ncc2c(n1)N(C1CCCC1)CC1(CC1)C(=O)N2C [Compound 386, N-((trans)-4-(4-benzylpiperazin-1-yl)cyclohexyl)-4-(9′-cyclopentyl-5′-methyl-6′-oxo-5′,6′,8′,9′-tetrahydrospiro[cyclopropane-1,7′-pyrimido[4,5-b][1,4]diazepine]-2′-ylamino)-3-methoxybenzamide] |  |

| SMILES | IC50 (Table 3) [µM] | Ki (Table 6) [µM] | IC50 [1] [µM] |
| --- | --- | --- | --- |
| COc1cc(C(=O)NC2CN3CCC2CC3)ccc1Nc1ncc2c(n1)N(C1CCCC1)CC1(CC1)C(=O)N2C (racemic) [Compound 186, (±)-4-(9′-cyclopentyl-5′-methyl-6′-oxo-5′,6′,8′,9′-tetrahydrospiro[cyclopropane-1,7′-pyrimido[4,5-b][1,4]diazepine]-2′-ylamino)-3-methoxy-N-(quinuclidin-3-yl)benzamide] | < 0.1 |  | < 0.1 |
| COc1cc(C(=O)NC2CN3CCC2CC3)ccc1Nc1ncc2c(n1)N(C1CCCC1)CC(C)(C)C(=O)N2C (racemic) [Compound 194, (±)-4-(9-cyclopentyl-5,7,7-trimethyl-6-oxo-6,7,8,9-tetrahydro-5H-pyrimido[4,5-b][1,4]diazepin-2-ylamino)-3-methoxy-N-(quinuclidin-3-yl)benzamide] | < 0.1 |  | < 0.1 |
| COc1cc(C(=O)N[C@H]2CN3CCC2CC3)ccc1Nc1ncc2c(n1)N(C1CCCC1)CC1(CC1)C(=O)N2C [Compound 347, (R)-4-(9′-cyclopentyl-5′-methyl-6′-oxo-5′,6′,8′,9′-tetrahydrospiro[cyclopropane-1,7′-pyrimido[4,5-b][1,4]diazepine]-2′-ylamino)-3-methoxy-N-(quinuclidin-3-yl)benzamide] | < 0.1 |  | < 0.1 |
| COc1cc(C(=O)N[C@@H]2CN3CCC2CC3)ccc1Nc1ncc2c(n1)N(C1CCCC1)CC1(CC1)C(=O)N2C [Compound 348, (S)-4-(9′-cyclopentyl-5′-methyl-6′-oxo-5′,6′,8′,9′-tetrahydrospiro[cyclopropane-1,7′-pyrimido[4,5-b][1,4]diazepine]-2′-ylamino)-3-methoxy-N-(quinuclidin-3-yl)benzamide] | < 0.1 |  | < 0.1 |
